Several values for one entry are separate records, joined by “and”; a condition that tells them apart may be missing. Equal values may be shown once.
What was measured:
PDK3 [1] = biological target: T1, PDK3 (Homo sapiens, UniProt Q15120); test: Enzyme inhibition assay (ATPase, malachite green); format: biochemical; conditions: ATP 200 µM, PDK3 4 µM, 25 °C, 1 h; AAT Bioquest calculator
T1 construct: made in house
Description: Following our published protocols, an enzyme inhibition assay was carried out. Freshly prepared ATP (200 µM) was added to PDK3 (4 µM) and final reaction mixture of 100 μL was incubated at 25 °C for 1 h. Malachite green (200 μL) was further added to the reaction mixture to stop the reaction followed by incubation of samples at room temperature for 20–25 min for the development of color. From the final reaction mixture, 100 μL was transferred to a 96-well plate in triplicate to measure spectrophotometrically at 620 nm.
To further validate our fluorescence-based binding studies, an enzyme inhibition assay was carried out with increasing concentrations of hordenine to check the kinase inhibitory potential. The kinase activity was quantified and plotted as percent inhibition. The kinase activity of PDK3 alone was taken as 100% for reference. It is clear from Figure 5 that with an increasing concentration of hordenine (0–13.75 µM), there was a dose-dependent decrease in PDK3 activity.

PDK3 [2] = biological target: T1, PDK3; test: Fluorescence binding (quenching, modified Stern-Volmer); conditions: PDK3 4 μM, modified Stern-Volmer equation; read-out: Binding constant (K) from fluorescence studies (converted)
Description: The binding affinity of ligands to PDK3 was analyzed by monitoring changes in the fluorescence emission intensity of protein [33]. Fluorescence measurements were carried out on the Jasco spectrofluorimeter (FP-6200, Japan). The experimental parameters were, λexc as 280 nm and λem in the range of 300–400 nm with slit width: 10 nm and medium sensitivity. All the measurements were carried out in triplicates and blank subtracted spectra were reported. The observed fluorescence values were corrected for the inner filter effect. Protein was titrated with an increasing concentration of ligands and each titration of protein. A decrease in the fluorescence intensity was mathematically evaluated using the modified Stern-Volmer equation [35] to estimate the binding parameters for hordenine-PDK3 interaction.
To measure the actual binding affinity of hordenine to PDK3, fluorescence binding studies were performed as described. […] The decrease in fluorescence intensity was mathematically analyzed using a double log relation (modified Stern−Volmer equation) to find the value of binding constant (K).

H1299 cells = test: MTT cell viability assay, H1299; format: cell-based; conditions: Homo sapiens, NCI-H1299, 48 h, 0–200 μM, read-out: IC50, growth inhibition of H1299 cells
Description: (§1) Cell cultures of H1299 and A549 cells were respectively maintained in RPMI-1640 and F12K cell growth medium, while HEK293 cells were maintained in DMEM (having 10% heat-inactivated FBS and 1% antibiotic-antimycotic solution) in a humidified CO2 incubator (5% CO2, 37 °C). These lung cancer cell lines were selected based on previous reports related to PDK3 [49]. Hordenine was evaluated for cell growth inhibition potential using the MTT assay as described. Briefly, the selected cells were plated in a 96-well culture plate (6000–7000 cells/well), and after 24 h cells were incubated with hordenine (0–200 μM) for 48 h. Following 48 h incubation of cells with hordenine, 25 µL MTT (from 5 mg/mL stock) was added and incubated for 4–5 h at 37 °C in a CO2 incubator. The resultant formazan was dissolved in 100 µL of DMSO and the absorbance was measured at 570 nm using a multiplate ELISA reader (BioRad). The percentage of cell viabilities was estimated using absorbance data and plotted as a function of hordenine concentration. Respective DMSO treatment was taken as vehicle control and subtracted from corresponding hordenine treatment groups, whereas for anticancer studies paclitaxel has been taken as a positive control.

A549 cells = test: MTT cell viability assay, A549; format: cell-based; conditions: Homo sapiens, 48 h, 0–200 μM, read-out: IC50, growth inhibition of A549 cells
Description: as §1

HEK293 cells = test: MTT cytotoxicity assay, HEK293; format: cell-based, human; conditions: 48 h, concentration range 0–200 μM
Description: as §1

PDK3 [3] = biological target: T1, PDK3; test: Isothermal titration calorimetry; format: binding; conditions: ITC 25 °C
Description: ITC measurements were carried out at 25 °C on a VP-ITC microcalorimeter from MicroCal, Inc (GE, MicroCal, Northampton, MA, USA). The purified protein was extensively dialyzed and degassed before use to avoid the bubble problem. DMSO was added in an equal amount to the protein solution (1% v/v) to prevent signal stability problems during ITC measurements. The first injection was a false one (2 μL) and then successive injections of 10 μL followed by the initial false injection. The sample cell contained PDK3 while the syringe was filled with the hordenine. Data analysis was carried out using the attached MicroCal Origin 8.0. The values (Ka, ΔH, ΔS) were calculated after curve fitting as described in our previous communications.
Thermodynamic parameters associated with the interaction of hordenine to PDK3 were measured by ITC as described. […] Various studies report different values of thermodynamic parameters obtained from fluorescence spectroscopy and ITC and this is because ITC measures a global change in the thermodynamic properties while fluorescence spectroscopy takes into account only the local changes around the fluorophore (Trp214). In the upper panel, raw data with negative heat pulses is shown which confirms exothermic binding. Binding curves found after subtraction of dilution heat of both ligands and protein are depicted in the bottom section. The obtained ITC isotherm advocates the spontaneous binding of hordenine with PDK3. The results presented were obtained from four site model fitting and thermodynamic parameters obtained for this interaction are presented in Table 1.

T1 sequence (Q15120 whole entry): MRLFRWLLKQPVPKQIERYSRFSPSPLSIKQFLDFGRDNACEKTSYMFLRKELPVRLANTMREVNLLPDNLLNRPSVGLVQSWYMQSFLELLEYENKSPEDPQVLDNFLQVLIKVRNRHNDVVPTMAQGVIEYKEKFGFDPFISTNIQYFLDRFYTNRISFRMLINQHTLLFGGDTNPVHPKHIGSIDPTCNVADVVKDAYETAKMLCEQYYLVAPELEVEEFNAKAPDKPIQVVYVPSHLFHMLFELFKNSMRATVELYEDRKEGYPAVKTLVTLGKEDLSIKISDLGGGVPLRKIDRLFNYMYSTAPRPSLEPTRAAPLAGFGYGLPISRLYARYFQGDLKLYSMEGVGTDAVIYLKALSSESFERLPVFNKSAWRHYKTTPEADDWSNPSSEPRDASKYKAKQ

SMILES: CN(C)CCc1ccc(O)cc1 [hordenine, Hordenine]
- IC50 (PDK3 [1]): 5.4 µM
- Kd (PDK3 [2]): 1 µM and 2 µM
- IC50 (H1299 cells): 21.3 ± 1.99 µM
- IC50 (A549 cells): 15 ± 2.13 µM
- Growth inhibition / cytotoxicity on HEK293 cells (HEK293 cells): did not inhibit the growth of HEK293 cells
- Kd (PDK3 [3]; 500 µM hordenine into 15 µM PDK3, four site model, site 1, read-out: Ka1 (Association Constant)): 51.3 µM
- ∆H1 (Enthalpy Change) (PDK3 [3]; four site model, site 1): ∆H1 = 4151 ± 1.2 × 10^3 cal/mol
- ∆S1 (PDK3 [3]; four site model, site 1): ∆S1 = 33.5 cal/mol/deg
- ∆H2 (Enthalpy Change) (PDK3 [3]; four site model, site 2): ∆H2 = −5.11 × 10^4 ± 4.18 × 10^3 cal/mol
- ∆S2 (PDK3 [3]; four site model, site 2): ∆S2 = −149 cal/mol/deg
- Kd (PDK3 [3]; four site model, site 2, read-out: Ka2 (Association Constant)): 10.8 µM
- ∆H3 (Enthalpy Change) (PDK3 [3]; four site model, site 3): ∆H3 = 3.75 × 10^4 ± 5.20 × 10^3 cal/mol
- ∆S3 (PDK3 [3]; four site model, site 3): ∆S3 = 147 cal/mol/deg
- Kd (PDK3 [3]; four site model, site 3, read-out: Ka3 (Association Constant)): 19.6 µM
- ∆H4 (Enthalpy Change) (PDK3 [3]; four site model, site 4): ∆H4 = −2.33 × 10^5 ± 1.03 × 10^4 cal/mol
- ∆S4 (PDK3 [3]; four site model, site 4): ∆S4 = −767 cal/mol/deg
- Kd (PDK3 [3]; four site model, site 4 (printed Ka3), read-out: Ka3 (Association Constant), fourth line of the table): 400 µM
